Test results as given in paper PMC11039737, “Exploring a repurposed candidate with dual hIDO1/hTDO2 inhibitory potential for anticancer efficacy identified through pharmacophore-based virtual screening and in vitro evaluation” (Scientific Reports, 2024).

How the values were obtained:
[1] = molecular target: T1, human Indoleamine 2,3-dioxygenase 1 (hIDO1) (Homo sapiens, UniProt P14902); experiment: IDO1 Inhibitor Screening Assay Kit (Catalog # […]), enzymatic dose response; format: biochemical
T1 construct: gene IDO1
T1 sequence (P14902 whole entry): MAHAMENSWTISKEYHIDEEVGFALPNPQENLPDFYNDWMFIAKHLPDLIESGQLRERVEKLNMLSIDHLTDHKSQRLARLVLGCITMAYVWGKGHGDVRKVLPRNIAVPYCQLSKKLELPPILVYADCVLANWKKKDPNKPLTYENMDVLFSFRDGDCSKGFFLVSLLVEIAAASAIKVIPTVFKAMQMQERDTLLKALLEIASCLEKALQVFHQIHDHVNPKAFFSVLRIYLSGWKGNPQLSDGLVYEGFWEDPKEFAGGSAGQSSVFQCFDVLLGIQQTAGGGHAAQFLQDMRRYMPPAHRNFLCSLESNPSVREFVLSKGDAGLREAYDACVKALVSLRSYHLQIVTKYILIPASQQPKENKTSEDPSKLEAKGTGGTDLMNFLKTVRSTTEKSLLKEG

[2] = molecular target: T2, human Tryptophan 2,3-dioxygenase 2 (hTDO2) (Homo sapiens, UniProt P48775); experiment: TDO2 Fluorogenic Inhibitor Screening Assay Kit (Catalog # […]), enzymatic dose response; format: biochemical
T2 construct: gene TDO2
T2 sequence (P48775 whole entry): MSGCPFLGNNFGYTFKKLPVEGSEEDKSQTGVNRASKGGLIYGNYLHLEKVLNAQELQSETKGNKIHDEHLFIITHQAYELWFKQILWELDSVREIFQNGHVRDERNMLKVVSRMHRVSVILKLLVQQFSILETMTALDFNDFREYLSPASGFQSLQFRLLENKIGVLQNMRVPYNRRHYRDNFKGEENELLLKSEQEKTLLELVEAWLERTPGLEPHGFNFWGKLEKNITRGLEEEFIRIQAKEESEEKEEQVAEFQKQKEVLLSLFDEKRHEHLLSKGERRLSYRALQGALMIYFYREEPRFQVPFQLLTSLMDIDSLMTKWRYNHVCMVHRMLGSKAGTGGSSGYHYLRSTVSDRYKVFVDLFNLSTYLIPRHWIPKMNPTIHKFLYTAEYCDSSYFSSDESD

`O=C(O)C[C@H](O)C[C@H](O)/C=C/c1c(C2CC2)nc2ccccc2c1-c1ccc(F)cc1` [Pitavastatin] was tested, and the IC50 [1] was 351 ± 16 nM and the IC50 [2] was 588 ± 27 nM.
